Source: patent publication US20100069319A1, “Mercaptopurine derivatives and uses thereof” (priority 2007, published 2010)

Tested on: N87
Assay: Anti-proliferative concentration IC50 (Table 2)
Format: cell-based, human
Conditions: Homo sapiens; N87, 16 h, tested at 0-200 μM; read-out: Anti-proferative concentration - IC50 (mean ± SE)
Method: Cell proliferation was determined by the XTT viability assay in 96-well plates, based on the reduction of tetrazolium salt to soluble formazan compounds by living cells. Cells (10,000-15,000 cells/well) were seeded in a 96-well plate. After 16 h incubation with various concentrations of 6-MP, 6-MPR and their S-allylthio-derivatives, 50 μl of XTT/PMS mixture (50 μM PMS, 0.1% XTT in medium) was added onto the cells. After an incubation period of 3-4 h at 37° C. the absorbance of the samples was measured in an ELISA Reader at 450 nm. SDS (1%, 10 μl/well) was added to reference wells before adding the XTT/PMS solution.
The results of viability and proliferation were expressed as mean values±SD (n=3-6). For each cell line, the results were analyzed using two-way analysis of variance (ANOVA) followed by Bonferroni's posttest for the factors of the drugs used and their various concentrations, considering p<0.05 as significant. IC50 values (mean±SEM) were obtained from the linear range of the viability curve versus drug concentration (XTT assay).
In particular, cell in suspension, namely, Daudi, HL-60, U937, Molt-4, Jurkat and B-CLL, were tested at prodrug concentration of 0-100 μM, and monolayer cells, namely, Hela HtTA-1, MDR HT-29 and N87, were tested at prodrug concentration of 0-200 μM. in both cases, cell viability was determined by trypan blue dye exclusion assay. Data are presented in Table 2 hereinbelow for 6MP derivatives-treated for 16 h.

C=CCSSc1ncnc2nc[nH]c12 [SA-6MP, S-allylthio-6-mercaptopurine]
IC50: 70.5 ± 8.5 µM
